Read-outs that look alike come from different tables or passages of the source. Where no end group is shown, it is not given here.
How the values were obtained:
Type in all cases: cell-based
human Y2 receptor = target: T1, human Y2 receptor (Homo sapiens, UniProt P49146); assay: Human Y2 receptor potency assay (inositol phosphate turnover)
T1 construct: expressed in transfected cells; host or cells: COS-7 cells, transient transfection, co-transfected with Gqi5
T1 sequence (P49146 1-381): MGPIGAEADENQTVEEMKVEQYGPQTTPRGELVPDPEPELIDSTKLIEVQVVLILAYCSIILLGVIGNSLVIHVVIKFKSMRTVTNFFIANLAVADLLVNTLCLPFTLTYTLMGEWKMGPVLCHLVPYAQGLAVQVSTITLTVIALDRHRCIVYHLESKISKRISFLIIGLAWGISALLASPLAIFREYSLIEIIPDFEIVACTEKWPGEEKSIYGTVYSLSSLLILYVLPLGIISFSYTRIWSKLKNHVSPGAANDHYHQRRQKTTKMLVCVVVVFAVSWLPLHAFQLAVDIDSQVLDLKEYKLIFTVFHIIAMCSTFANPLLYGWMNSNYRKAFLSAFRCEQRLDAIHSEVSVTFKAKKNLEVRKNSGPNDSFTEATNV
Description: Potency of the test compounds on the human Y2 receptor is determined by performing dose-response experiments in COS-7 cells transiently transfected with the human Y2 receptor as well as a promiscuous G protein, Gqi5 which ensures that the Y2 receptor couples through a Gq pathway leading to an increase in inositol phosphate turnover. […] After stimulation with various concentrations of peptide for 45 min at 37 C, cells are extracted with 10% ice-cold perchloric acid followed by incubation on ice for 30 min. […] Determinations are made in duplicates.

human Y1 receptor = target: T2, human Y1 receptor (Homo sapiens, UniProt P25929); assay: Human Y1 receptor potency assay (inositol phosphate turnover)
T2 construct: expressed in transfected cells; host or cells: COS-7 cells
T2 sequence (P25929 1-384): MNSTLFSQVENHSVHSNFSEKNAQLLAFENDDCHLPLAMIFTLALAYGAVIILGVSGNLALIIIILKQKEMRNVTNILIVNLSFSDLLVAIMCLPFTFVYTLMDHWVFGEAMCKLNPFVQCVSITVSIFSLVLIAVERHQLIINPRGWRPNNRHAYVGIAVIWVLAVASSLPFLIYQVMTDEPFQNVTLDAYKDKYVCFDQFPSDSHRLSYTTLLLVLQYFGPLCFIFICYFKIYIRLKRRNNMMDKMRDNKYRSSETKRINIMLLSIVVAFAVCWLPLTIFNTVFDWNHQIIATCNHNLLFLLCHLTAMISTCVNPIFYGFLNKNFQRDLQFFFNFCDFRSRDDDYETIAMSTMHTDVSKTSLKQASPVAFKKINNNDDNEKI
Description: Cells are washed twice in buffer, 20 mM HEPES, pH 7.4, supplemented with 140 mM NaCl, 5 mM KCl, 1 mM MgSO4, 1 mM CaCl2, 10 mM glucose, 0.05% (w/v) bovine serum; and are incubated in 0.5 ml buffer supplemented with 10 mM LiCl at 37 C for 30 min. After stimulation with various concentrations of peptide for 45 min at 37 C, cells are extracted with 10% ice-cold perchloric acid followed by incubation on ice for 30 min. The resulting supernatants are neutralized with KOH in HEPES buffer, and the generated [3H]-inositol phosphate are purified on Bio-Rad AG 1-X8 anion-exchange resin and counted in a beta counter. Determinations are made in duplicates. EC50 values were calculated using a standard pharmacological data handling software, Prism 3.0 (graphpad Sofware, San Diego, USA).
Protocol as for the Y2 potency assay, except that human Y1-transformed COS-7 cells are used.

human Y4 receptor = target: T3, human Y4 receptor (Homo sapiens, UniProt P50391); assay: Human Y4 receptor potency assay (inositol phosphate turnover)
T3 construct: expressed in transfected cells; host or cells: COS-7 cells
Description: After stimulation with various concentrations of peptide for 45 min at 37 C, cells are extracted with 10% ice-cold perchloric acid followed by incubation on ice for 30 min. The resulting supernatants are neutralized with KOH in HEPES buffer, and the generated [3H]-inositol phosphate are purified on Bio-Rad AG 1-X8 anion-exchange resin and counted in a beta counter. Determinations are made in duplicates. […] Protocol as for the Y2 potency assay, except that human Y4-transformed COS-7 cells are used.

[1] = COS-7 cells transiently transfected with human Y2 receptor and Gqi5, [3H]-inositol phosphate turnover, peptide 45 min at 37 C, read-out: hY2 EC50
[2] = human Y1-transformed COS-7 cells, [3H]-inositol phosphate turnover, peptide 45 min at 37 C, read-out: hY1 EC50

T3 sequence (P50391 whole entry): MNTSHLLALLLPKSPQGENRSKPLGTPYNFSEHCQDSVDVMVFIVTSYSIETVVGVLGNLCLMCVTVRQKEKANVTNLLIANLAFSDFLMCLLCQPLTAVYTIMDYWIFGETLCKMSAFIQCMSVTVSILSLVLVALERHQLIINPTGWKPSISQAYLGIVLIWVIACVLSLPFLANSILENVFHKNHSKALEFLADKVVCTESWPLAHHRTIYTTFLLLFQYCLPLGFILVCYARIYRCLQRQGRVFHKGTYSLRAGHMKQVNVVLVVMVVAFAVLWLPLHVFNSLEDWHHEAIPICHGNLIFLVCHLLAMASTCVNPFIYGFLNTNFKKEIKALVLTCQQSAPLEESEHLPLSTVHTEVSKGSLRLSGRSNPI

Row | Molecule | EC50 (human Y2 receptor; [1]) [µM] | EC50 (human Y1 receptor; [2]) [µM] | further results
1 | CC[C@H](C)[C@H](NC(=O)[C@H](Cc1ccc(O)cc1)NC(=O)[C@H](CCCNC(=N)N)NC(=O)[C@H](CCCNC(=N)N)NC(=O)[C@H](CC(C)C)NC(=O)[C@H](CC(=O)O)NC(=O)[C@H](C)NC(=O)[C@H](C)NC(=O)[C@H](Cc1ccc(O)cc1)NC(=O)[C@H](CCC(N)=O)NC(=O)[C@H](C)NC(=O)[C@H](CCSC)NC(=O)[C@H](CCC(N)=O)NC(=O)[C@H](CCC(=O)O)NC(=O)[C@@H]1CCCN1C(=O)[C@@H](NC(=O)[C@H](C)NC(=O)[C@H](CC(N)=O)NC(=O)[C@H](CCC(=O)O)NC(=O)CNC(=O)[C@@H]1CCCN1C(=O)[C@H](Cc1ccc(O)cc1)NC(=O)[C@@H](NC(=O)[C@@H]1CCCN1C(=O)[C@H](CCC(=O)O)NC(=O)[C@H](CC(C)C)NC(=O)[C@@H]1CCCN1)C(C)C)[C@@H](C)O)C(=O)N[C@@H](CC(N)=O)C(=O)N[C@@H](CCSC)C(=O)N[C@@H](CC(C)C)C(=O)N[C@H](C(=O)N[C@@H](CCCNC(=N)N)C(=O)N1CCC[C@H]1C(=O)N[C@@H](CCCNC(=N)N)C(=O)N[C@@H](Cc1ccc(O)cc1)C(N)=O)[C@@H](C)O [[Glu-10]-PP(2-36), [Glu10]PP2-36] | – | – | EC50 (human Y2 receptor): > 1 µM
2 | CCCC[C@H](NC(=O)[C@H](CCC(N)=O)NC(=O)[C@H](CCC(=O)O)NC(=O)[C@@H]1CCCN1C(=O)[C@@H](NC(=O)[C@H](C)NC(=O)[C@H](CC(N)=O)NC(=O)[C@H](CC(=O)O)NC(=O)CNC(=O)[C@@H]1CCCN1C(=O)[C@H](Cc1ccc(O)cc1)NC(=O)[C@@H](NC(=O)[C@@H]1CCCN1C(=O)[C@H](CCC(=O)O)NC(=O)[C@H](CC(C)C)NC(=O)[C@@H]1CCCN1)C(C)C)[C@@H](C)O)C(=O)N[C@@H](C)C(=O)N[C@@H](CCC(N)=O)C(=O)N[C@@H](Cc1ccc(O)cc1)C(=O)N[C@@H](C)C(=O)N[C@@H](C)C(=O)N[C@@H](CC(=O)O)C(=O)N[C@@H](CC(C)C)C(=O)N[C@@H](CCCNC(=N)N)C(=O)N[C@@H](CCCNC(=N)N)C(=O)N[C@@H](Cc1ccc(O)cc1)C(=O)N[C@H](C(=O)N[C@@H](CC(N)=O)C(=O)N[C@@H](CCCC)C(=O)N[C@@H](CC(C)C)C(=O)N[C@H](C(=O)N[C@@H](CCCNC(=N)N)C(=O)N1CCC[C@H]1C(=O)N[C@@H](CCCNC(=N)N)C(=O)N[C@@H](Cc1ccc(O)cc1)C(N)=O)[C@@H](C)O)[C@@H](C)CC [[Nle17,Nle30]-PP(2-36), [Nle17, Nle30]PP2-36] | > 1 | – | –
3 | PLEPVYPGDNATPEQMAQYAADLRRYINALTRPRY-NH2 [[Ala-30]-PP(2-36), [Ala30]PP2-36] | > 1 | > 1 | –
4 | PLEPVYPGDNATPEQMAQYAADLRRYINNLTRPRY-NH2 [[Asn-30]-PP(2-36), [Asn30]PP2-36] | > 1 | > 1 | –
5 | PLEPVYPGDNATPEQMAQYAADLRRYINQLTRPRY-NH2 [[Gln-30]-PP(2-36), [Gln30]PP2-36] | > 1 | > 1 | –
6 | PLEPVYPGDNATPEQMAQYAADLRRYINTLTRPRY-NH2 [[Thr-30]-PP(2-36), [Thr30]PP2-36] | > 1 | > 1 | EC50 (human Y4 receptor; human Y4-transformed COS-7 cells, [3H]-inositol phosphate turnover, peptide 45 min at 37 C, read-out: hY4 EC50): 0.00107 µM
7 | PLEPVYPGENATPEQLAQYAADLRRYINTLTRPRY-NH2 [[Glu10;Leu17;Thr-30]-PP(2-36), [Glu10, Leu17, Thr30]PP2-36] | – | – | EC50 (human Y2 receptor): > 1 µM; EC50 (human Y1 receptor): > 1 µM; EC50 (human Y4 receptor): 0.00107 µM
